{
  "source": "patent US9040083B2",
  "about": "“Orally effective methylphenidate extended release powder and aqueous suspension product” (Tris Pharma, Inc., priority 2011, dated 2015)",
  "origin": "cited, not measured here",
  "conditions": "oral dosing of radiolabeled methylphenidate in humans",
  "data": [
    {"smiles": "COC(=O)C(c1ccccc1)C1CCCCN1", "note": "(stereo not shown) [methylphenidate]", "values": [
      {"measurement": "radioactivity recovered in urine", "result": "about 90%"}
    ]}
  ]
}
